Data taken from PubChem BioAssay (NCI).
Several values for one entry are separate records, joined by “and”; a condition that tells them apart may be missing. Identical values can stand only once.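 Five concentrations, 48 hours, 96-well plates. GI50 marks 50% less growth. TGI is the concentration that stops growth completely.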

How the values were obtained:
Test in all cases: inhibition of tumour cell growth, NCI panel, 48 h
M14 melanoma = tested on: M14 melanoma
CAKI-1 renal = tested on: CAKI-1 renal
OVCAR-8 ovarian = tested on: OVCAR-8 ovarian
ACHN renal = tested on: ACHN renal
SK-MEL-2 melanoma = tested on: SK-MEL-2 melanoma
NCI-H522 lung = tested on: NCI-H522 lung
BT-549 breast = tested on: BT-549 breast
MDA-MB-435 = tested on: MDA-MB-435
786-0 renal = tested on: 786-0 renal
HL-60(TB) leukemia = tested on: HL-60(TB) leukemia

Row | SMILES | GI50 (M14 melanoma) | TGI (M14 melanoma) | GI50 (CAKI-1 renal) | TGI (CAKI-1 renal) | GI50 (OVCAR-8 ovarian) | TGI (OVCAR-8 ovarian) | GI50 (ACHN renal) | TGI (ACHN renal) | GI50 (SK-MEL-2 melanoma) | TGI (SK-MEL-2 melanoma) | GI50 (NCI-H522 lung) | TGI (NCI-H522 lung) | GI50 (BT-549 breast) | TGI (BT-549 breast) | GI50 (MDA-MB-435) | TGI (MDA-MB-435) | GI50 (786-0 renal) | TGI (786-0 renal) | GI50 (HL-60(TB) leukemia) | TGI (HL-60(TB) leukemia)
1 | COc1ccc(/C=C2/CN(C(=O)c3ccccc3F)C/C(=C\c3ccc(OC)cc3)C2=O)cc1 | 2.73 µM | 7.51 µM | 4.87 µM | > 100 µM | 3.4 µM | 85.1 µM | 2.95 µM | 9.46 µM | 15.3 µM | 35.8 µM | 4.2 µM | 15 µM | 2.05 µM | 4.32 µM | 2.48 µM | 9.93 µM | 2.04 µM | 4.37 µM |  | 
2 | COc1ccc2c(c1)Oc1nc(N)c(C#N)c(N)c1C2Sc1ccc(SC)cc1 (centres undefined) | 1.76 µM | 3.33 µM |  |  | 1.76 µM | 3.19 µM | 1.74 µM | 3.11 µM | 1.7 µM | 3.28 µM | 1.65 µM | 3.08 µM | 1.63 µM | 3 µM | 1.74 µM | 3.23 µM | 1.66 µM | 3.06 µM | 1.99 µM | 5.49 µM
3 | Cc1c(Cl)ccc2c1NC(=O)C2(O)CC(=O)c1ccc(Cl)cc1Cl (centres undefined) |  | > 50 µM |  | > 50 µM |  | > 50 µM |  | > 50 µM |  | > 50 µM |  | > 50 µM |  | > 50 µM |  | > 50 µM |  | > 50 µM |  | 
4 | O=C1c2ccn(CCCCN3CCOCC3)c2C(=O)c2c1c(O)c1ccccc1c2O | 2.36 µM | 6.32 µM | 5.94 µM | 21 µM | 5.52 µM | 20 µM | 10.8 µM | 28.4 µM |  |  | 40.3 µM | > 100 µM |  |  | 2.13 µM | 4.62 µM | 6.34 µM | 25.2 µM | 9.07 µM | 59.9 µM
5 | CN(C)c1c(Cl)c(=O)oc2c1ccc1nc(-c3ccccc3)sc12 |  | > 100 µM |  | > 100 µM |  | > 100 µM |  | > 100 µM |  |  |  | > 100 µM |  | > 100 µM |  | > 100 µM |  | > 100 µM |  | > 100 µM
6 | COc1cc(OC)cc(N2CCC(c3c(N)nc(N)nc3Cl)CC2)c1 |  | > 100 µM |  | > 100 µM |  | > 100 µM |  | > 100 µM |  | > 100 µM |  | > 100 µM |  |  |  |  |  | > 100 µM |  | > 100 µM
7 | O=S(=O)(Nc1ccc(-c2nc(-c3cccc(OCCN4CCOCC4)c3)c(-c3ccnc(Br)c3)[nH]2)cc1)c1ccccc1 | 2.09 µM | 5.55 µM | 2.56 µM | 14.5 µM | 3.27 µM | > 100 µM | 2.99 µM | > 100 µM | 2.59 µM | 6.87 µM | 3.14 µM | > 100 µM | 3.02 µM | > 100 µM | 2.93 µM | > 100 µM | 2.37 µM | 7.96 µM |  | 
8 | Cc1ccc(S(=O)(=O)N(C)C)cc1[N+](=O)[O-] | > 100 µM | > 100 µM | > 100 µM | > 100 µM | > 100 µM | > 100 µM | > 100 µM | > 100 µM |  |  | > 100 µM | > 100 µM |  |  | > 100 µM | > 100 µM | > 100 µM | > 100 µM |  | 
9 | CCc1nc2c(O)ccc(O)c2nc1C |  | 28.3 µM |  | 33.2 µM |  | 23.8 µM |  | 23 µM |  | 32.2 µM |  | 6.47 µM |  |  |  |  |  | 26.3 µM |  | > 21.7 µM
10 | O=C1OCC(c2ccc(O)c(O)c2)=C1c1cc(O)c(O)c(O)c1 | 23.9 µM | 69.7 µM | 14.3 µM | 27.9 µM | 75 µM | > 100 µM | 33.3 µM | > 100 µM |  |  | 47.4 µM | > 100 µM | 39 µM | > 100 µM | 17 µM | 32.5 µM | 18.1 µM | 32.7 µM |  | 
11 | COc1ccc(CNc2cc(OC)cc(OC)c2)cc1 |  | > 100 µM | > 100 µM and 34.6 µM | > 100 µM |  | > 100 µM |  | > 100 µM |  | > 100 µM |  | > 100 µM |  |  |  |  |  | > 96.2 µM |  | > 100 µM
12 | OCCN1CCN(CCCN2c3ccccc3Sc3ccc(C(F)(F)F)cc32)CC1 | 0.899 µM and 2.34 µM | 1.73 µM and 6.13 µM | 2.61 µM and 11.3 µM and 6.93 µM | 9.5 µM and 25.7 µM and 21.6 µM | 4.46 µM and 13.6 µM and 14 µM | 11.4 µM and 28.5 µM and 28.8 µM | 3.61 µM and 11.7 µM and 10.2 µM | 10.2 µM and 25.6 µM and 22.6 µM |  |  |  | 3.49 µM and 30.1 µM and 26.8 µM | 5.65 µM and 2.92 µM and 3.29 µM | 12.1 µM and 17.7 µM and 9.5 µM | 1.14 µM and 3.54 µM and 2.44 µM | 3 µM and 14 µM and 7.42 µM | 3.01 µM and 9.35 µM and 3.81 µM | 9.95 µM and 25.9 µM and 20.4 µM | 2.52 µM and 11.5 µM and 2.06 µM | 9.06 µM and 29.3 µM and 5.56 µM
13 | N#C/C(=C\c1ccc(CP(=O)(O)O)cc1)C(N)=O |  | > 100 µM |  | > 100 µM |  | > 100 µM |  | > 100 µM |  | > 100 µM |  | > 100 µM |  |  |  |  |  | > 100 µM |  | > 100 µM
14 | OCC(O)CC[CH2][Sn]([c]1ccccc1)([c]1ccccc1)[c]1ccccc1 (centres undefined) | 14.2 µM | 31 µM | 8.12 µM | 21.5 µM | 15.7 µM | 31.5 µM | 8.89 µM | 21 µM | 15.3 µM | 29 µM | 4.64 µM | 13.7 µM |  |  |  |  | 14.8 µM | 28.2 µM | 11.3 µM | 35.3 µM
15 | CC(C)(C)c1nc2c(o1)C(=Nc1ccccc1)c1ccccc1C2=O |  | 6.1 µM |  | 64.9 µM |  | 26.2 µM |  | 26.6 µM |  | 6.99 µM |  | 10.2 µM |  |  |  |  |  | 64.3 µM |  | 16.6 µM
16 | O=C(NO)c1ccc(C(=O)NO)cc1 |  | > 100 µM |  | > 100 µM |  | > 100 µM |  | > 100 µM |  |  |  |  |  |  |  | > 100 µM |  | > 100 µM |  | > 100 µM
17 | CC1OCC2OC(C)OC(C3C4=C(CC(C)(C)CC4=O)OC4=C3C(=O)CC(C)(C)C4)C2O1 (centres undefined) |  | > 100 µM |  | > 100 µM |  | > 100 µM |  | > 100 µM |  | > 100 µM |  | > 100 µM |  |  |  | > 100 µM |  | > 100 µM |  | > 100 µM
18 | CC(C)C1CN1CC(O)Cn1ccnc1[N+](=O)[O-] (centres undefined) |  | > 100 µM |  | > 100 µM |  | > 100 µM |  | > 100 µM |  | > 100 µM |  | > 100 µM |  | > 100 µM |  |  |  | > 100 µM |  | 
19 | CN(C(=O)C1CCCCC1)c1ccccc1I(=O)=O |  |  | 36.8 µM | > 100 µM | 74.8 µM | > 100 µM | 39.4 µM | > 100 µM | > 100 µM | > 100 µM | 16.3 µM | 30.2 µM | 42.4 µM | > 100 µM | 41.4 µM | > 100 µM | 43.3 µM | > 100 µM | 13.5 µM | 36.8 µM
